Assay results from PubChem BioAssay (NCI).
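Values below derive from 48-hour exposures of cells grown in 96-well plates, with endpoints linearly interpolated between the two concentrations bracketing the appropriate inhibition level. GI50: concentration for 50% inhibition of growth. Definition used: TGI = concentration required for complete inhibition of growth.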

Assays:
Assay in all cases: inhibition of tumour cell growth, NCI panel, 48 h
NCI-H226 lung = system: NCI-H226 lung
SK-OV-3 ovarian = system: SK-OV-3 ovarian
HCC-2998 colon = system: HCC-2998 colon
DU-145 prostate = system: DU-145 prostate
KM12 colon = system: KM12 colon
MOLT-4 leukemia = system: MOLT-4 leukemia
SR leukemia = system: SR leukemia
IGROV1 ovarian = system: IGROV1 ovarian
OVCAR-4 ovarian = system: OVCAR-4 ovarian
RXF 393 renal = system: RXF 393 renal

SMILES	GI50 (NCI-H226 lung) [µM]	TGI (NCI-H226 lung) [µM]	GI50 (SK-OV-3 ovarian) [µM]	TGI (SK-OV-3 ovarian) [µM]	GI50 (HCC-2998 colon) [µM]	TGI (HCC-2998 colon) [µM]	GI50 (DU-145 prostate) [µM]	TGI (DU-145 prostate) [µM]	GI50 (KM12 colon) [nM]	TGI (KM12 colon) [µM]	GI50 (MOLT-4 leukemia) [µM]	TGI (MOLT-4 leukemia) [µM]	GI50 (SR leukemia) [nM]	TGI (SR leukemia) [µM]	GI50 (IGROV1 ovarian) [µM]	TGI (IGROV1 ovarian) [µM]	GI50 (OVCAR-4 ovarian) [µM]	TGI (OVCAR-4 ovarian) [µM]	GI50 (RXF 393 renal) [µM]	TGI (RXF 393 renal) [µM]
CCCCCc1ccc(S(=O)(=O)Nc2cc(-c3csc(NC(C)=O)n3)ccc2N2CCN(C)CC2)cc1	4.94	10.7	5.95	11.5	1.62	5.47	5.16	9.8	5650	11	2.43	8.33	929	2.77	4.67	9.46	5.44	10.3	3.66	8
O=C(NCc1ccc(S(=O)(=O)c2cc(F)cc(F)c2)cc1)c1ccc2nccn2c1	> 46	> 73.9	17.1	60.6	14.6	> 100	0.0773	> 100	328	> 100	> 27.2	> 100	–	> 100	12.1	> 80.4	11.3	> 77.3	> 44.8	> 72.4
O=C(Nc1ccc(Cl)c(Cl)c1)Nc1ccccc1O	15.9	53.7	16	40.8	5.56	19.6	9.75	31.1	3350	13.7	3.15	49.1	4570	24.8	6.48	29.3	5.44	> 100	15	35.6
O=C1C(Cl)=C(Nc2ccccc2O)C(=O)N1Cc1ccccc1	20.1	48.8	28.5	71.9	20.9	35.3	18.2	32.1	17800	36.2	19.6	> 100	51700	> 100	29.7	> 100	43.1	> 100	12.5	30.7
COc1ccc2c(c1)C(C)Cc1c(ncnc1-n1cnc3cc(C)ccc31)N2C (centres undefined)	0.157	16.3	0.0591	11.7	0.329	13.3	0.325	12.1	132	11.7	0.247	12.9	44.3	11.1	0.254	14.5	0.347	33.7	0.0305	25.3
N#Cc1ccc(OC(=O)Nc2ccc(Cl)c(Cl)c2)cc1	3.8	> 100	5.98	51.2	4.79	26.5	4.13	> 100	3270	12.8	3.71	27.8	7670	93.2	4.04	> 100	2.24	17.7	7.3	42.2
CC[C@@]1(O)C(=O)OCc2c1cc1n(c2=O)Cc2c-1nc1cc(F)c(C)c3c1c2[C@@H](N)CC3	< 0.01	0.0358	< 0.01	1.41	0.0314	0.665	< 0.01	> 100	20.3	24.7	< 0.01	> 100	< 10	> 100	0.0162	1.59	0.0656	> 100	< 0.01	0.0254
Cc1nn(C(=O)c2ccc(Cl)cc2)c2c1C(c1ccc(O)cc1)SC(N)=N2 (centres undefined)	–	> 10	–	> 10	–	> 10	–	> 10	–	> 10	–	> 10	–	> 10	–	> 10	–	> 10	–	> 10
O=c1oc2ccc(Br)cc2c(=O)n1-c1ccc(F)cc1F	2.32	13.8	0.398	3.38	3.54	18.4	3.82	27.7	2750	8.49	3.12	> 100	2670	> 100	1.94	24.8	1.65	8.45	2.27	6.34
Cn1cc(-c2ccc(-c3cncc(Cl)c3N3CCC4(CCNC4=O)CC3)cc2)cn1	65.5	> 100	41.6	> 100	> 100	> 100	50.3	> 100	33300	> 100	15.5	> 100	1680	21.2	68	> 100	65.1	> 100	18.2	> 100
O=C(N/N=C/c1c(Cl)cccc1Cl)c1ccc(C(F)(F)F)nc1Nc1cccc(C(F)(F)F)c1	1.53	6.74	1.69	6.3	3.97	> 100	1.79	> 32.8	1100	> 30	0.394	7.7	457	14.4	1.01	13.9	0.466	> 100	–	–
COCOc1ccc(C2(O)Oc3cc(OCOC)ccc3C2C)c(O)c1 (centres undefined)	–	31.2	–	31.8	–	26.6	–	25.8	–	31.7	–	60.8	–	75.1	–	31.6	–	32.1	–	31.1
COc1ccc2c3c(Nc4ccc(/C(C)=N/O)cc4)[nH]c4ccccc4c-3c(N=O)c2c1	17	38.3	–	–	1.78	3.27	2.04	4.79	1130	4.39	0.951	2.84	1470	4.27	15	29.2	28.4	68.2	–	0.0372
